Laboratory results: article PMC5578959, “Selective LRRK2 kinase inhibition reduces phosphorylation of endogenous Rab10 and Rab12 in human peripheral mononuclear blood cells” (Scientific Reports, 2017)

Columns and labels:
Experiment in all cases: KiNativ profiling in human PBMCs
Type in all cases: binding
FES = test system: T1, FES; conditions: Lys1
T1 construct: purchased ActivX Technologies (KiNativ)
Procedure, shortened: (§1)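 PBMCs treated in live-cell format, compound 1 µM / 0.1 µM; kinase profiling by KiNativ methodology.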

MAP3K4 = test system: T2, MAP3K4; conditions: Lys2
T2 construct: purchased ActivX Technologies (KiNativ)
Procedure, shortened: as §1

SGK3 = test system: T3, SGK3
T3 construct: purchased ActivX Technologies (KiNativ)
Procedure, shortened: as §1

AKT1 = test system: T4, AKT1; conditions: ATP Loop
T4 construct: purchased ActivX Technologies (KiNativ)
Procedure, shortened: as §1

SNRK = test system: T5, SNRK
T5 construct: purchased ActivX Technologies (KiNativ)
Procedure, shortened: as §1

GSK3A = test system: T6, GSK3A; conditions: Lys2
T6 construct: purchased ActivX Technologies (KiNativ)
Procedure, shortened: as §1

NEK8 = test system: T7, NEK8; conditions: Lys2
T7 construct: purchased ActivX Technologies (KiNativ)
Procedure, shortened: as §1

JAK1 domain2 = test system: T8, JAK1 domain2
T8 construct: JAK1 domain2; purchased ActivX Technologies (KiNativ)
Procedure, shortened: as §1

PKN1 = test system: T9, PKN1
T9 construct: purchased ActivX Technologies (KiNativ)
Procedure, shortened: as §1

NuaK2 = test system: T10, NuaK2; conditions: Lys1
T10 construct: purchased ActivX Technologies (KiNativ)
Procedure, shortened: as §1

BRAF = test system: T11, BRAF; conditions: Lys2
T11 construct: purchased ActivX Technologies (KiNativ)
Procedure, shortened: as §1

MARK2,MARK3 = conditions: Lys2
Procedure, shortened: as §1

ABL,ARG = test system: ABL,ARG
Procedure, shortened: as §1

ULK1 = test system: T12, ULK1; conditions: Lys2
T12 construct: purchased ActivX Technologies (KiNativ)
Procedure, shortened: as §1

RIPK3 = test system: T13, RIPK3; conditions: Lys2
T13 construct: purchased ActivX Technologies (KiNativ)
Procedure, shortened: as §1

MST2 = test system: T14, MST2; conditions: Lys1
T14 construct: purchased ActivX Technologies (KiNativ)
Procedure, shortened: as §1

MAP2K6 = test system: T15, MAP2K6
T15 construct: purchased ActivX Technologies (KiNativ)
Procedure, shortened: as §1

NEK9 = test system: T16, NEK9
T16 construct: purchased ActivX Technologies (KiNativ)
Procedure, shortened: as §1

PLK1 = test system: T17, PLK1; conditions: Lys1
T17 construct: purchased ActivX Technologies (KiNativ)
Procedure, shortened: as §1

NEK4 = test system: T18, NEK4; conditions: Lys2
T18 construct: purchased ActivX Technologies (KiNativ)
Procedure, shortened: as §1

GCN2 = test system: T19, GCN2
T19 construct: purchased ActivX Technologies (KiNativ)
Procedure, shortened: as §1

IRAK1 = test system: T20, IRAK1; conditions: Lys2
T20 construct: purchased ActivX Technologies (KiNativ)
Procedure, shortened: as §1

MAP2K7 = test system: T21, MAP2K7; conditions: Lys2
T21 construct: purchased ActivX Technologies (KiNativ)
Procedure, shortened: as §1

IKKe = test system: T22, IKKe; conditions: Lys1
T22 construct: purchased ActivX Technologies (KiNativ)
Procedure, shortened: as §1

Erk2 = test system: T23, Erk2; conditions: Lys2
T23 construct: purchased ActivX Technologies (KiNativ)
Procedure, shortened: as §1

ARAF = test system: T24, ARAF; conditions: Lys2
T24 construct: purchased ActivX Technologies (KiNativ)
Procedure, shortened: as §1

JAK3 domain2 = test system: T25, JAK3 domain2
T25 construct: JAK3 domain2; purchased ActivX Technologies (KiNativ)
Procedure, shortened: as §1

DNAPK = test system: T26, DNAPK; conditions: ATP
T26 construct: purchased ActivX Technologies (KiNativ)
Procedure, shortened: as §1

CDK7 = test system: T27, CDK7; conditions: Lys2
T27 construct: purchased ActivX Technologies (KiNativ)
Procedure, shortened: as §1

ULK3 = test system: T28, ULK3
T28 construct: purchased ActivX Technologies (KiNativ)
Procedure, shortened: as §1

p38a = test system: T29, p38a
T29 construct: purchased ActivX Technologies (KiNativ)
Procedure, shortened: as §1

ZAP70 = test system: T30, ZAP70
T30 construct: purchased ActivX Technologies (KiNativ)
Procedure, shortened: as §1

MST4,YSK1 = conditions: Lys2
Procedure, shortened: as §1

FYN,SRC,YES = conditions: Activation Loop
Procedure, shortened: as §1

Erk5 = test system: T31, Erk5; conditions: Lys2
T31 construct: purchased ActivX Technologies (KiNativ)
Procedure, shortened: as §1

PFTAIRE1 = test system: T32, PFTAIRE1
T32 construct: purchased ActivX Technologies (KiNativ)
Procedure, shortened: as §1

Cn1cc(-c2c[nH]c3ncnc(N4CCOCC4)c23)cc1C#N [PFE-360]
% Inhibition (FES; 0.1µM): -0.3%
% Inhibition (FES; 1µM): -5.7%
% Inhibition (MAP3K4; 0.1µM): -0.3%
% Inhibition (MAP3K4; 1µM): -7.3%
% Inhibition (SGK3; 0.1µM, Lys1): 8.9%
% Inhibition (SGK3; 0.1µM, Lys2): -21.8%
% Inhibition (SGK3; 1µM, Lys1): 5.1%
% Inhibition (SGK3; 1µM, Lys2): -10.5%
% Inhibition (AKT1; 0.1µM): -6.3%
% Inhibition (AKT1; 1µM): -3.2%
% Inhibition (SNRK; 0.1µM, Lys1): 17.1%
% Inhibition (SNRK; 0.1µM, Lys2): -21.9%
% Inhibition (SNRK; 1µM, Lys1): -2%
% Inhibition (SNRK; 1µM, Lys2): -18.7%
% Inhibition (GSK3A; 0.1µM): 10.6%
% Inhibition (GSK3A; 1µM): 19.8%
% Inhibition (NEK8; 0.1µM): -1.8%
% Inhibition (NEK8; 1µM): -12.1%
% Inhibition (JAK1 domain2; 0.1µM, Activation Loop): -1.9%
% Inhibition (JAK1 domain2; 0.1µM, Lys1): 0%
% Inhibition (JAK1 domain2; 1µM, Activation Loop): -10.1%
% Inhibition (JAK1 domain2; 1µM, Lys1): -13.8%
% Inhibition (PKN1; 0.1µM, Lys1): -4.7%
% Inhibition (PKN1; 0.1µM, Lys2): -3.5%
% Inhibition (PKN1; 1µM, Lys1): -10.8%
% Inhibition (PKN1; 1µM, Lys2): -25.9%
% Inhibition (NuaK2; 0.1µM): 14.4%
% Inhibition (NuaK2; 1µM): 4.6%
% Inhibition (BRAF; 0.1µM): -13.9%
% Inhibition (BRAF; 1µM): -14.3%
% Inhibition (MARK2,MARK3; 0.1µM): -16.2%
% Inhibition (MARK2,MARK3; 1µM): 16.7%
% Inhibition (ABL,ARG; 0.1µM, Activation Loop): -15.2%
% Inhibition (ABL,ARG; 0.1µM, Lys1): -22.4%
% Inhibition (ABL,ARG; 1µM, Activation Loop): -0.3%
% Inhibition (ABL,ARG; 1µM, Lys1): 1.3%
% Inhibition (ULK1; 0.1µM): 9.8%
% Inhibition (ULK1; 1µM): 4.2%
% Inhibition (RIPK3; 0.1µM): 16.1%
% Inhibition (RIPK3; 1µM): 27.3%
% Inhibition (MST2; 0.1µM): 15.1%
% Inhibition (MST2; 1µM): 48%
% Inhibition (MAP2K6; 0.1µM, Lys1): -18%
% Inhibition (MAP2K6; 0.1µM, Lys2): 14.6%
% Inhibition (MAP2K6; 1µM, Lys1): 1.8%
% Inhibition (MAP2K6; 1µM, Lys2): 6.2%
% Inhibition (NEK9; 0.1µM, Lys1): -10.6%
% Inhibition (NEK9; 0.1µM, Lys2): 8.9%
% Inhibition (NEK9; 1µM, Lys1): -19.6%
% Inhibition (NEK9; 1µM, Lys2): 5.7%
% Inhibition (PLK1; 0.1µM): -4.1%
% Inhibition (PLK1; 1µM): -6.7%
% Inhibition (NEK4; 0.1µM): 9.8%
% Inhibition (NEK4; 1µM): -8.3%
% Inhibition (GCN2; 0.1µM, Lys1): 3.5%
% Inhibition (GCN2; 0.1µM, Lys2): -3.6%
% Inhibition (GCN2; 1µM, Lys1): -13.3%
% Inhibition (GCN2; 1µM, Lys2): 2.5%
% Inhibition (IRAK1; 0.1µM): -6.1%
% Inhibition (IRAK1; 1µM): -11.8%
% Inhibition (MAP2K7; 0.1µM): 7.5%
% Inhibition (MAP2K7; 1µM): -1.1%
% Inhibition (IKKe; 0.1µM): 2.3%
% Inhibition (IKKe; 1µM): 7.7%
% Inhibition (Erk2; 0.1µM): 9.1%
% Inhibition (Erk2; 1µM): 5.3%
% Inhibition (ARAF; 0.1µM): 7.6%
% Inhibition (ARAF; 1µM): 2.5%
% Inhibition (JAK3 domain2; 0.1µM, Activation Loop): 6.4%
% Inhibition (JAK3 domain2; 0.1µM, Lys1): 2.6%
% Inhibition (JAK3 domain2; 1µM, Activation Loop): 7.7%
% Inhibition (JAK3 domain2; 1µM, Lys1): -7.6%
% Inhibition (DNAPK; 0.1µM, peptide EHPFLVKGGEDLR): 0.3%
% Inhibition (DNAPK; 0.1µM, peptide KGGSWIQEINVAEK): -1.9%
% Inhibition (DNAPK; 1µM, peptide EHPFLVKGGEDLR): -12.5%
% Inhibition (DNAPK; 1µM, peptide KGGSWIQEINVAEK): -4.9%
% Inhibition (CDK7; 0.1µM): 5%
% Inhibition (CDK7; 1µM): -4.6%
% Inhibition (ULK3; 0.1µM, Lys1): 1%
% Inhibition (ULK3; 0.1µM, Lys2): -2.5%
% Inhibition (ULK3; 1µM, Lys1): -3%
% Inhibition (ULK3; 1µM, Lys2): 0.6%
% Inhibition (p38a; 0.1µM, Lys2): 7.1%
% Inhibition (p38a; 0.1µM, Protein Kinase Domain): 7.5%
% Inhibition (p38a; 1µM, Lys2): -2.9%
% Inhibition (p38a; 1µM, Protein Kinase Domain): 1%
% Inhibition (ZAP70; 0.1µM, Activation Loop): -0.7%
% Inhibition (ZAP70; 0.1µM, Lys1): 0.4%
% Inhibition (ZAP70; 1µM, Activation Loop): -9.8%
% Inhibition (ZAP70; 1µM, Lys1): -5.9%
% Inhibition (MST4,YSK1; 0.1µM): -0.2%
% Inhibition (MST4,YSK1; 1µM): -16.6%
% Inhibition (FYN,SRC,YES; 0.1µM): -0.7%
% Inhibition (FYN,SRC,YES; 1µM): 8.2%
% Inhibition (Erk5; 0.1µM): 5%
% Inhibition (Erk5; 1µM): 7.2%
% Inhibition (PFTAIRE1; 0.1µM, Lys1): 1.9%
% Inhibition (PFTAIRE1; 0.1µM, Lys2): -4%
% Inhibition (PFTAIRE1; 1µM, Lys1): -2%
% Inhibition (PFTAIRE1; 1µM, Lys2): -1.5%
